These results are taken from US20190269705A1, “METHODS AND MATERIALS FOR TREATING GRAFT VERSUS HOST DISEASE” (Regents of the University of Minnesota, priority 2017, published 2019).

Type in all cases: cell-based, mouse
One assay relates to Eμ B ALL cells. The experiment in a line: In vitro CAR T cell co-culture with target Eμ B ALL cells. The note with it: CAR-T cells treated with CB839 before co-culture. The source says: T cells were isolated from wild type C57BL6 spleens using the Pan T Cell isolation kit (Cat #: 130-095-130) and were activated on anti-CD3 anti-CD28 coated plates with IL2 for four days with or without CB839. On days 1 and 2, T cells were transduced with retrovirus produced by Plat-E cells carrying the CAR construct targeting CD19 with GFP reporter. On day 4, CAR T cells were washed three times to remove any drug remnants and plated to equal concentrations on a 96 well plate at 5×10^5 cells per well and serial dilutions thereof. 5×10^5 Emu cells, a CD19+ B cell acute lymphoblastic leukemia cell line
(Generously provided by Dr. Davila Lab) were then added to every well to assay cell numbers. CD19+ and GFP+events were stained and counted by flow for each well after 72 hours.

The subject of another assay is Th17 cells. Description: Intracellular metabolites by mass spectrometry and pathway analysis, Th17. Conditions: for Hits: Th17 Pathway. On the procedure:
(§1) Glucose uptake assays were performed as described elsewhere (see, e.g., Macintyre et al., 2014 Cell Metab. 20(1):61-72). Naïve CD4+ T cells were differentiated into Th1 and Th17 cells, in triplicate, in the presence or absence of CB839 over 5 days and spun down after reisolation using CD4 kit as previously described. Cells were washed 2× in PBS, counted, then rested in 1 mL Kreb's Ringers HEPES (KRH) for 10 minutes. Cells were spun and resuspended to 5×10^5 cells/50 uL KRH for glucose uptake assay. Briefly, cells were […]. Cells incubated for 10 minutes at 37° C. Immediately after incubation, reaction was quenched with 200 μM phloretin (Calbiochem, Cat #: 524488). Cells were spun, washed, and then resuspended in scint fluid for counting on Beckman-Coulter scintillation counter. Pathway analysis of altered metabolites was performed using Metaboanalyst 3.0 (metaboanalyst. ca/faces/home.xhtml).
Differentiation: CD4 cells were isolated as previously described and differentiated in subset-specific medium (in triplicate) for 3 days, split at day 3 with new media and IL-2, then allowed to incubate a further 2 days. At day 5, wells were combined, cells washed lx in MACS buffer, re-isolated for CD4 via AutoMACS Pro automated magnetic separator (Miltenyi, Cat #: 130-092-545). Metabolites from Th1 and Th17 cells were extracted as described above.
Differentiation. CD4 cells were isolated as previously described and differentiated in subset-specific medium in the presence of vehicle or CB839 (in triplicate) for 3 days, split at day 3 with new media and IL-2, then allowed to incubate a further 2 days. At day 5, wells were combined, cells washed 1× in MACS buffer and re-isolated for CD4 via AutoMACS Pro automated magnetic separator (Miltenyi, Cat #: 130-092-545). Metabolites from Th1 and Th17 cells were extracted and analyzed by LC-HRMS using a Q-Exactive as described previously (Gerriets et al., 2015). Data were range scaled and analyzed using Metaboanalyst 3.5 (Xia and Wishart, 2002) to generate heat maps and for principle component analyses.

The subject of the next assay is Th1 cells. Description: 3H-2-deoxyglucose uptake and ECAR, Th1. On the procedure: as §1
Experiments were carried out on Agilent Seahorse XF96 bioanalyzer (Agilent). Briefly, wild type CD4+ cells were isolated as previous and activated for 3 days on CD3/CD28 as previously described, or skewed to Th1 and Th17 subsets as described above. T cells were spun onto XF96 Cell-Tak (BD Bioscience, Cat #: 354240) coated plates and rested in Seahorse XF RPMI 1640 media supplemented with glutamine, sodium pyruvate, and glucose. For immediate metabolic response, CB839 and UK5099 were injected separately or in combination, and OCR and ECAR measured.
Glucose uptake assays were performed as previously described (Macintyre et al.,2014). Naïve CD4+ T cells were differentiated into Th1 and Th17 cells, in triplicate, in the presence or absence of CB839 over five days and spun down after reisolation using CD4 kit as previously described. At day 3 and 5, cells were removed, washed twice in PBS, counted, then rested in 1 mL Kreb's Ringers HEPES (KRH) for at least 10 minutes. Cells were spun and resuspended to 5×10^5 cells/50 μL KRH for glucose uptake assay. Briefly, 3H-2-deoxyglucose was suspended in KRH bubble layered in oil, and cells were added to this bubble. Cells were incubated for 10 minutes at 37° C. Immediately after incubation, reaction was quenched with 200 μM phloretin (Calbiochem, Cat #: 524488). Cells were spun, washed, and then resuspended in scintilation fluid for counting on Beckman-Coulter scintillation counter (3H, 1 min/sample read).
Experiments were carried out on Agilent Seahorse XF96 bioanalyzer (Agilent). Briefly, wild type CD4+ cells were isolated as previous and activated for 3 days on αCD3/CD28 coated plates as previously described, or skewed to Th1 and Th17 subsets as described above. T cells were isolated and spun onto XF96 Cell-Tak (BD Bioscience, Cat #: 354240) coated plates and rested in Seahorse XF RPMI 1640 media supplemented with glutamine, sodium pyruvate, and glucose. For immediate metabolic response, 1 μM CB839 and 5 μM UK5099 (Cat #: PZ0160-5MG) were injected separately or in combination, and OCR and ECAR measured. For activation response, 1 uM CB839 was injected into IL-7 maintained naïve CD4+ T cells in seahorse medium and allowed to incubate for 20 minutes, followed by soluble αCD3/CD28 injection.

Where [1] appears, read: Th1, day 5, listed as GLS inhibitor.

“Also recorded” adds a separate entry of the source.

Regarding `O=C(Cc1cccc(OC(F)(F)F)c1)Nc1ccc(CCCCc2nnc(NC(=O)Cc3ccccn3)s2)nn1` [CB839], in the assay with Eμ B ALL cells, the “elimination of B cell leukemia cells in vitro” value was “greater ability to eliminate B cell leukemia cells in vitro”. For the same compound, the “2-hydroxyglutarate (2-HG)” value in the assay with Th17 cells (Th17, CB839-treated vs vehicle) was “increased in both Th1 and Th17”. Also, the “intracellular α-KG” value in the assay on Th17 cells (Th17, CB839-treated vs vehicle) was “reduced in CB839-treated Th1, but not Th17 cells”. Also, the “programs of intracellular metabolites” value in the assay on Th17 cells (Th17, differentiated with CB839, 5 days) is listed as “more pronounced in Th17 than in Th1 cells; also recorded: shifted”. Besides, the “glutamate and aspartate levels” value in the assay on Th17 cells (Th17, over five days) is recorded as “rapidly decreased”. Moreover, in the assay on Th17 cells (Th17, over five days), the “steady state levels of glutamine” value is “rapidly increased”. The Hits in the assay with Th17 cells (Alanine, aspartate and glutamate metabolism) was found to be 5; with Th17 cells (Pentose phosphate pathway), 5; in the assay with Th17 cells (Phenylalanine, tyrosine and tryptophan biosynthesis), 2; in the assay on Th17 cells (Purine metabolism) it was 8. Further, the glucose uptake result in the assay on Th1 cells (Th1, day 5) is “increased”; with Th1 cells (setting [1]) it was “increased levels of glucose uptake and glycolytic flux”; in the assay with Th1 cells (Th1, day three), “reduced”. The “media acidification (ECAR, glycolytic flux)” value with Th1 cells (Th1, day 5) is “increased”; in the assay on Th1 cells (setting [1]), “increased levels of glucose uptake and glycolytic flux”.
